Measurements from patent publication US20240228487A1, “FUSED HETEROCYCLIC COMPOUND AND APPLICATION THEREOF, PHARMACEUTICAL COMPOSITIONS CONTAINING SAME AND APPLICATION THEREOF” (ZHEJIANG UNIVERSITY, priority 2021, published 2024).

Assays:
[1] = test system: C57BL/6 mice, transient middle cerebral artery occlusion (tMCAO); test: mouse tMCAO cerebral stroke model (Embodiment 69); type: in vivo; conditions: 3 mg/kg tail vein injection 3 h after reperfusion
From the text: After isoflurane inhalation gas anesthesia of 22-25 g male C57BL/6 mice, the fiber-optic probes of a laser Doppler flowmeter were fixed to the skull of the mice with glue for monitoring the cerebral blood flow of the middle cerebral artery (MCA) supplying cortex. The mice were fixed in the supine position, and the middle of the neck was dehaired and routinely sterilized with 75% alcohol. An approximately 1.5 cm incision was made in the middle of the neck, and the skin of the neck was incised, and the muscle and fascia were separated along the inner edge of the sternocleidomastoideole; the right carotid artery sheath was bluntly separated to expose the right common carotid artery (CCA), external carotid artery (ECA), and internal carotid artery (ICA); after the surgical area was exposed satisfactorily, the CCA and ICA were temporarily clipped with arterial clips, and a small incision was made at the proximal end of the ECA with microsurgical scissors, and a nylon monofilament suture was inserted from the small incision along the ECA, and gently pushed into the intracranial area in the direction of the ICA for about 11.5±0.5 mm, blocking the beginning of the middle cerebral artery. Only the animals whose blood flow values decreased to 20% of the basic value were selected according to the blood flow data monitored by the flowmeter. After 90 minutes of ischemia, the monofilament sutures were gently withdrawn out, the arterial stumps were tied tightly, the surgical wounds were inspected, the bleeding was thoroughly stopped, a small amount of penicillin powder was sprinkled locally to prevent infection, and the subcutaneous tissues and the skin were sutured layer by layer, thus completing the ischemia reperfusion injury model. A heating plate was used to maintain the body temperature of the animals during surgery. After completion of the surgery, the sutured mice were placed in a heat preservation and humidification box until the mice recovered activities. Animals in the sham-operated group were subjected to the same surgical procedure but without middle artery occlusion.
Clean-grade male C57BL/6 mice were randomly divided into five groups, namely, the sham-operated group, the group of the positive control drug Edaravone(3 mg/kg), and the 3 mg/kg dose group of compounds II-1, II-23 and III-1.
The mice were subjected to tail vein injections of Edaravone, II-1, II-23, and III-1 respectively 3 h after modeling and reperfusion; the sham-operated group was injected with an equal volume of saline, and II-1, II-23, III-1, and Edaravone were dissolved in 0.9% saline solution. Neurological function scores and TTC staining of mice were performed 24 h after ischemia-reperfusion, and the results are shown in FIGS. 6, 7 and 8.
The mice were decapitated 24 h after ischemia-reperfusion, the coronal planes of the brains were cut into brain slices of about 2 mm thickness uniformly. The brain slices were placed in 0.25% 2,3,5-triphenyltetrazolium chloride (TTC) solution, incubated at 37° C. Celsius for 30 minutes away from light, stained, and fixed in 4% paraformaldehyde neutral buffer (pH 7.4) overnight. The processed brain slices were photographed using a macro camera, and Image J image analysis software was used to calculate and count the cerebral infarct volume, and the measured results are shown in FIG. 7. The formula for calculating the percentage of infarct volume was (sum of the left uninfarcted area −sum of the right uninfarcted area)/sum of the left uninfarcted area×100%.
According to the five-level, four-point standard of score, the mortality and neuromotor dysfunction scores of each group of mice were performed, and the results are shown in FIG. 8. […]

[2] = test system: dopaminergic neurons differentiated from iPSC derived from disseminated PD patients; test: mitochondrial fusion morphology (Mitotracker, Girk2 labeling) of iPSC differentiated dopaminergic neurons; type: cell-based, human; conditions: II-23 0.6 μM, ACA 0.5 μM; Mitotracker staining, Girk2-positive neurons
Experimental: Using normal and disseminated PD patient-derived induced pluripotent stem cells (iPSC), performing drug interventions using the TRPM2 inhibitors ACA and II-23 after they were induced and differentiated into mature dopaminergic neurons, the drug treating method is as follows: • a. Calculating the materials for the experiment, and starting preparing when the dopaminergic neurons are differentiated to the 8th day. The petri dishes should be treated with 33 μg/mL PDL overnight and washed with sterilized water. After drying, 2 μg/mL of laminin was added and incubated overnight. Both PDL and laminin can be recycled for reuse. • b. […] Fluorescence confocal imaging was performed using a confocal dish inoculated with 2 mL/dish, and cell viability assays were performed using a 96-well plate inoculated with 100 μL/well. […]
Positive dopamine neurons were labeled with a dopaminergic neuron marker molecule Girk2 antibody susceptible for SNc, and cellular mitochondria were labeled with the mitochondrial dye mitotracker as in FIG. 15. […] Finally, performing the fluorescence imaging: removing the secondary antibody, and washing three times with 1×PBS, adding 50% Glycerol for fluorescence protection, and then imaging with a Zeiss LSM880 laser confocal microscope, as shown in FIG. 15.

CCN(CC)C(=O)c1cc(C(=O)c2ccccc2)n2cccc2c1 [II-23, 5-Benzoyl-N, N-diethylindolizine-7-formamide]
area of cerebral infarction caused by tMCAO ([1]; TTC staining 24 h after ischemia-reperfusion): significantly reduced | neuromotor dysfunction scores caused by tMCAO ([1]; scored 24 h after ischemia-reperfusion): significantly reduced | excessive mitochondrial fusion in dopaminergic neurons derived from PD patients [2]: reversed
